Data on seven molecules can be found in patent publication US5863913A, “Aromatic compound and pharmaceutical composition” (Kureha Chemical Industry Co., Ltd., priority 1996, dated 1999).

The test system of series [1] is kidney disease model rats. The experiment in a line: Action to lower blood pressure in kidney disease model rats (tail cuff). To be noted: for Blood Pressure: systolic, average of 8 rats, 20 mg/kg with drinking water, two days after administration, control 210. The format is in vivo, Sprague-Dawley female rats. The method, then:
(§1) The compounds of the present invention and the reference substance were administered with drinking water to kidney disease model rats, and the action of lowering the blood pressure was observed. The kidney disease model rats were prepared by a ligature of branches of renal artery in accordance with a conventional method. Namely, the left hilum renalis of Sprague-Dawley female rats was exposed under anesthesia, and one of four secondary branches of the renal artery was left unligated, while the remaining three branches were ligated, respectively. After a week, the hilum renalis (artery, vein, and ureter) of the right kidney were further ligated to thereby prepare rats whose renal function was lowered to approximately 1/8 of the normal function. Each group consisted of eight rats. The drugs to be tested (20 mg/kg) were administered to each administering group, and only water was administered to a control group. Two days after the administration, the systolic blood pressure was measured by the tail cuff method using a blood pressure measuring apparatus (UR5000; Ueda).

The subject of series [2] is kidney disease model rats. The experiment in a line: Renal function indicatory value in kidney disease model rats. The format is in vivo, Sprague-Dawley female rats. Conditions: 20 mg/kg/day with drinking water, six weeks; for Creatinine clearance: 24 hours urine, control 0.22; for Creatinine / Blood urea nitrogen: serum; for Creatinine: control 2.0; for Blood urea nitrogen: control 100. As for the experimental part:
as §1, with “The” for “The compounds of the present invention and the reference substance were administered with drinking water to kidney disease model rats, and the action of lowering the blood pressure was observed. The”
The rats in each group were allowed to freely take up food. […] To the rats in the control group, only water was administered every day. After six weeks, 0.2 ml of blood was collected from the carotid artery of the rats under anesthesia, and centrifuged to obtain serum. Using 25 μl of the serum, the serum creatinine (Scr) was measured by a creatinine analytical instrument (Beckman). Using 10 μl of the serum, the blood urea nitrogen (BUN) was measured by a BUN analytical instrument (Beckman). The creatinine clearance was evaluated as follows:
After the serum creatinine measurement, rats were placed in urinary metabolic cages for 24 hours to collect urine. A urinary creatine concentration (Ucr) was measured by a creatinine analytical instrument, and a total volume of urination (Uvol) was also measured. The creatinine clearance (CCr) was calculated by the following formula: [formula]

The test system of series [3] is kidney disease model rats. Kind of series: Survival time of kidney diseased animals. To be noted: 20 mg/kg/day with drinking water, observation period eight weeks (upper limit); control 5.0. The format is in vivo, Sprague-Dawley female rats. As for the experimental part:
as §1
The kidney disease model rats were prepared as in Example 54. Twenty-two groups (8 rats per group) were prepared in a manner such that there was no major difference between the groups in the serum creatinine value and the blood urea nitrogen value indicating renal function. The rats in each group were allowed to freely take up food. […] To the rats in the control group, only water was administered every day. If kidney diseases are aggravated, the rat will die of uremia. Thus, the survival time was observed as a comprehensive indication of the improvement of the effect on the kidney diseases. The observation period was eight weeks. Thus if all rats survived, the average survival time is eight weeks, and is an upper limit.

For series [4], the target named is T1, angiotensin II receptor subtype 2 (AT2) (Bos taurus, UniProt G5E6F7).
T1 construct: receptor : from cerebellar cortex in bovine; from tissue; host or cells: bovine cerebellar cortex
T1 sequence (G5E6F7 1-362): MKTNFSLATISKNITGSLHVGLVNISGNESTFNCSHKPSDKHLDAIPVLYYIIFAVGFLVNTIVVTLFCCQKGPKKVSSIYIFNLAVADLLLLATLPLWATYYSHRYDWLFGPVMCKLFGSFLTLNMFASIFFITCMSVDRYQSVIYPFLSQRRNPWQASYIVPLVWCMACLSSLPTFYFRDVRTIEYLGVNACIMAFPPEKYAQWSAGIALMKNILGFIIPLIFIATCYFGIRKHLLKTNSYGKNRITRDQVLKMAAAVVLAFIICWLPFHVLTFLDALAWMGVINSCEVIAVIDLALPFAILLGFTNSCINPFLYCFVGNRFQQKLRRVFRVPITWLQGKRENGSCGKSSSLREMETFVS
The experiment in a line: Binding to receptors: angiotensin II receptor subtype 2 (AT2). Conditions: bovine cerebellar cortex, tracer 125I-Tyr4-angiotensin II. As for the experimental part: (§2) In this Example, the affinity to the angiotensin II receptor subtype 1 or subtype 2 was evaluated by a binding assay in accordance with the method described in Biochem. Pharmacol., 33, 4057-4062 (1984).
(§3) Specifically, the measurement of the total binding in the presence of each drug was performed as follows:
(§4) A mixture (final volume=0.25 ml) of a drug in a given concentration (the drug was dissolved in DMSO, and diluted to a double volume with a buffer attached to a drug discovery system to prepare a sample for the assay; 0.025 ml), a tracer (0.025 ml), and receptors (0.2 ml) was incubated [in the case of the angiotensin II receptor subtype 1 (AT1), at room temperature for 3 hours, and in the case of the subtype 2 (AT2), at 37° C. for 1 hour]. Then, the reaction mixture was filtered with suction (GF/C filter was used in AT1, and GF/B filter was used in AT2). The filter papers after filtration with suction (the tracer bound to the receptors) were counted by a γ-well counter (ARC-500, Aloka). The non-specific bindings were measured by repeating the above method, except that a large excess amount of a displacer was added. The specific binding of the drug in the given concentration was calculated by subtracting the non-specific binding from the total binding, respectively.
In AT1 and AT2, the percentages found to inhibit the bindings of radioactive ligands (tracer) to receptors by the drugs to be tested (IC50 value of concentration to show 50% inhibition, or binding inhibition % in 100 μM) were measured, using the drugs to be tested and control drugs in the given concentration.
receptor : from cerebellar cortex in bovine
tracer : ^125 ITyr^4angiotensin II
control drug : angiotensin II (human)
(displacer) : angiotensin II (human)

The subject of another series is ICR female mice. Kind of series: Acute toxicity, single oral dose in mice. To be noted: mouse, in vivo. As for the experimental part: The aromatic compounds of the formula (I) according to the present invention were orally administered to mice at the dose of 500 mg/kg, but no fatalities were observed over a period of one week.
Five-week-old ICR female mice (5 mice per group) were bred for acclimation for a week. Then, the compounds of the present invention were dissolved in water, and orally administered to the mice in a single dosage (500 mg/kg).

Series [5] has as its target T2, angiotensin II receptor subtype 1 (AT1) (Oryctolagus cuniculus, UniProt P34976).
T2 construct: receptor : from adrenal glands in rabbits; from tissue; host or cells: rabbit adrenal glands
T2 sequence (P34976 1-359): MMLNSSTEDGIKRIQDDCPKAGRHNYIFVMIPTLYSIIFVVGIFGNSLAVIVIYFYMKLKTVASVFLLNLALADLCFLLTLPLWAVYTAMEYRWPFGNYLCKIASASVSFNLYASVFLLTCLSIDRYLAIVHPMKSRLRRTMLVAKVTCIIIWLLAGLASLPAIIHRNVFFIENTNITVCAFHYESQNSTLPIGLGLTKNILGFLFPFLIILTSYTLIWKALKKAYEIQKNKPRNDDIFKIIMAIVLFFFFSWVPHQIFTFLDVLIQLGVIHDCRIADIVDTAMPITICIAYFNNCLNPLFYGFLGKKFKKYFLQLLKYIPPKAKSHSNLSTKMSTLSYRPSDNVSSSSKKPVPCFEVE
The experiment in a line: Binding to receptors: angiotensin II receptor subtype 1 (AT1). More on the design: species or system rabbits (adrenal glands). Conditions: rabbit adrenal glands, tracer 3H-angiotensin II. As for the experimental part: as §2, §3, §4
receptor : from adrenal glands in rabbits
tracer : ^3 Hangiotensin II

As for `CCCCc1nc(Cl)c(CO)n1Cc1ccc(-c2ccccc2-c2nn[nH]n2)cc1` [DuP753, reference compound], in series [1] (result in words, in comparison with the control group), the “action of lowering the blood pressure” value is reported as “clearly exhibited the action of lowering the blood pressure”. Besides, the “Blood Pressure” value in series [1] is on record as 130 mmHg. In series [2], this molecule showed a Creatinine clearance of 0.32 mL/min, a Creatinine of 1.6 mg/dL and a Blood urea nitrogen of 80 mg/dL. This molecule registered an Average survival time in series [3] of 6.9 weeks.
In series [4], `CCCCC(=O)N(Cc1ccc(C(=O)OCC(N)C(=O)OCC)cc1)c1cc(C(=O)N2CCOCC2)ccc1N(C)C` (stereo not drawn) [Compound No. 4, 3-N-[[[[4-(2'-amino-2'-ethoxycarbonyl)ethoxycarbonyl]phenyl]methyl]valeramido]-4-dimethyl aminobenzoic acid morpholide] showed an inhibition at 100 µM of 0%. The “Blood Pressure” value in series [1] came out at 204 mmHg. In series [2], this molecule yielded a Creatinine clearance of 0.37 mL/min, a Creatinine of 1.4 mg/dL and a Blood urea nitrogen of 72 mg/dL. Further, the “Number of deaths/number of survivals” value in the series with ICR female mice is reported as 0/5. Moreover, the Average survival time in series [3] is 6.9 weeks. For the same molecule, in series [5], the inhibition at 100 µM was determined as 11%.
Molecule `CCCCC(=O)N(Cc1ccc(C(=O)O)cc1)c1cc(C(=O)N2CCN(C)CC2)ccc1N(C)C` [Compound No. 10, 3-[[(4-carboxyohenyl)methyl]valeramido]-4-dimethylaminobenzoic acid 4'-methylpiperazide] yielded an inhibition at 100 µM in series [4] of 0%. Besides, the “Blood Pressure” value in series [1] was 206 mmHg. Further, in series [2], the Creatinine clearance came out at 0.32 mL/min, the Creatinine was determined as 1.6 mg/dL and the Blood urea nitrogen was found to be 81 mg/dL. Moreover, the “Number of deaths/number of survivals” value in the series with ICR female mice is reported as 0/5. In series [3], this molecule came in with an Average survival time of 6.9 weeks. The molecule further returned an inhibition at 100 µM in series [5] of 13%.
In the case of `CCCCC(=O)N(Cc1ccc(C(=O)OCC)cc1)c1cc(C(=O)N2CCN(C)CC2)ccc1C(C)C` [Compound No. 16, 3-[[(4-ethoxycarbonylphenyl)methyl]valeramido]-4-i-propylbenzoic acid 4'-methylpiperazide], the inhibition at 100 µM in series [4] worked out at 0%. The “Blood Pressure” value in series [1] is reported as 202 mmHg. In series [2], the Creatinine clearance was found to be 0.33 mL/min, the Creatinine worked out at 1.5 mg/dL and the Blood urea nitrogen was 78 mg/dL. In the series on ICR female mice, the “Number of deaths/number of survivals” value is listed as 0/5. The molecule further came in with an Average survival time in series [3] of 6.9 weeks. In series [5], this molecule gave an inhibition at 100 µM of 0%.
With `CCCCCCCC(=O)N(Cc1ccc(C(=O)O)cc1)c1cc(C(=O)N2CCN(C)CC2)ccc1N(C)C` [Compound No. 14, 3-[[(4-carboxyphenyl)methyl]n-octanamido]-4-dimethylaminobenzoic acid 4'-methylpiperazide], the inhibition at 100 µM in series [4] was 0%. Further, the “Blood Pressure” value in series [1] is reported as 205 mmHg. In addition, in series [2], the Creatinine clearance is 0.27 mL/min, the Creatinine came out at 1.7 mg/dL and the Blood urea nitrogen is 86 mg/dL. Moreover, the “Number of deaths/number of survivals” value with ICR female mice is listed as 0/5. The same molecule gave an Average survival time in series [3] of 6.3 weeks. Further, the inhibition at 100 µM in series [5] worked out at 0%.
In series [4], `CCCCC(=O)N(Cc1ccc(C(=O)OC2CNC(C(=O)OCC)C2)cc1)c1cc(C(=O)N2CCOCC2)ccc1N(C)C` (stereo not drawn) [Compound No. 5, 4-dimethylamino-3-N-[[[[4-(2'-ethoxycarbonylpyrrolidin-4'-yloxy)carbonyl]phenyl]methyl]valeramido]benzoic acid morpholide] had an inhibition at 100 µM of 0%. For the same molecule, in series [1], the “Blood Pressure” value amounted to 200 mmHg. Moreover, in series [2], the Creatinine clearance stood at 0.30 mL/min, the Creatinine was found to be 1.6 mg/dL and the Blood urea nitrogen worked out at 82 mg/dL. Further, the “Number of deaths/number of survivals” value in the series with ICR female mice is on record as 0/5. Further, in series [3], the Average survival time turned out to be 6.9 weeks. In addition, in series [5], the inhibition at 100 µM turned out to be 11%.
`CCCCC(=O)N(Cc1ccc(C(=O)O)cc1)c1cc(C(=O)N(CC)CCN(CC)CC)ccc1C(C)C` [Compound No. 17] returned an inhibition at 100 µM in series [4] of 23%. For the same molecule, in series [1], the “Blood Pressure” value is 201 mmHg. In series [2], the Creatinine clearance worked out at 0.33 mL/min, the Creatinine was determined as 1.5 mg/dL and the Blood urea nitrogen amounted to 78 mg/dL. The “Number of deaths/number of survivals” value in the series on ICR female mice was 0/5. Besides, in series [3], the Average survival time amounted to 6.9 weeks. Moreover, in series [5], the inhibition at 100 µM was 4%.
